In patent US10793543B2, “Selective C-KIT kinase inhibitor” (PRECEDO PHARMACEUTICALS CO., LTD, priority 2016, dated 2020):

Assays:
[1] = tested on: Tel-cKit/N822K-BaF3 cells (KIT N822K); test: Cell proliferation, CCK-8, Tel-cKit/N822K-BaF3; assay type: cell-based; details: Mus musculus, 72 hours
Source text: (§1) In addition, in the present example, further uses: mouse P210/BaF3 (stably expressing P210 Bcr-Abl mutant gene), mouse Tel-ABL-BaF3 (stably expressing wild-type ABL kinase), mouse Tel-cKit-BaF3 (stably expressing C-KITwild-type kinase), mouse Tel-cKit/V559D-BaF3 (stably expressing C-KIT V559D mutant kinase), mouse Tel-cKit/V559D/V654A-BaF3 (stably expressing C-KIT V559D/V654A mutant kinase), mouse Tel-cKit/N822K-BaF3 (stably expressing C-KIT N822K mutant kinase), mouse Tel-cKit/V654A-BaF3 (stably expressing C-KIT V654A mutant kinase), mouse Tel-cKit/L567P-BaF3 (stably expressing C-KIT L567P mutant kinase), mouse Tel-cKit/T670I-BaF3 (stably expressing C-KIT T670I mutant kinase), mouse Tel-PDGFRα-BaF3 (stably expressing PDGFRα kinase), mouse Tel-PDGFRβ-BaF3 (stably expressing PDGFRβ kinase), mouse Tel-VEGFR2-BaF3 (stably expressing VEGFR2 kinase), mouse Tel-RET-BaF3 (stably expressing RET kinase). The above cell lines were all constructed by our laboratory according to the following method: the kinase region sequences of human P210 Bcr-Abl, ABL, C-KIT, C-KIT V559D, C-KIT V559D/V654A, C-KIT N822K, C-KIT V654A, C-KIT L567P, C-KIT T670I, PDGFRα, PDGFRβ, VEGFR2, RET were amplified respectively by PCR, inserted respectively into MSCV-Puro vectors harboring N-terminal TEL fragment and/or NPM fragment and/or TPR fragment (Clontech), then the vectors were stably transfected into mouse BaF3 cells by retrovirus methods and growth factor IL-3 was removed, eventually obtaining cell lines that are transferred protein (P210 Bcr-Abl, ABL, C-KIT, C-KIT V559D, C-KIT V559D/V654A, C-KIT N822K, C-KIT V654A, C-KIT L567P, C-KIT T670I, PDGFRα, PDGFRβ, VEGFR2, RET)-dependent.
(§2) The cells were incubated for 72 hours, and then the number of viable cells was quantified with a microplate reader by using CCK-8 Cell Viability Assay Kit (purchased from Bestbio Company, Shanghai, China) (CCK-8 can be reduced by dehydrogenase in living cells to a highly water-soluble yellow formazan product, and the amount of formazan produced is proportional to the number of living cells).

[2] = tested on: Tel-PDGFRβ-BaF3 cells (PDGFRβ); test: Cell proliferation, CCK-8, Tel-PDGFRβ-BaF3; assay type: cell-based; details: Mus musculus, 72 hours
Source text: as §1, §2

BaF3 cells = test: Cell proliferation, CCK-8, parental BaF3; assay type: cell-based; details: Mus musculus, 72 hours
Source text: In the present example, the following cells were used: chronic myelogenous leukemia cells K562 (expressing P210 Bcr-Abl mutant gene), human megakaryocytic leukemia cells MEG-01 (expressing P210 Bcr-Abl mutant gene), human peripheral blood basophilic leukemia cells Ku812 (expressing Bcr-Abl mutant gene) (all above cells purchased from ATCC, USA), human gastrointestinal stromal tumor cell lines GIST-T1 cells (expressing wild-type C-KIT gene) (purchased from Cosmo Bio Co., Ltd., Japan), human gastrointestinal stromal tumor cell lines GIST-882 cells (expressing wild-type C-KIT gene) (presented by the Professor Gray Lab, Dana-Farber Cancer Institute, Harvard University, USA), mouse pro-B cells BaF3 (purchased from ATCC, USA).
as §2

[3] = tested on: P210/BaF3 cells (P210 Bcr-Abl); test: Cell proliferation, CCK-8, P210/BaF3; assay type: cell-based; details: Mus musculus; P210/BaF3, Bcr-Abl, 72 hours, CCK-8; read-out: GI50
Source text: In addition, in the present example, further uses: mouse P210/BaF3 (stably expressing P210 Bcr-Abl mutant gene), mouse Tel-ABL-BaF3 (stably expressing wild-type ABL kinase), mouse Tel-cKit-BaF3 (stably expressing C-KITwild-type kinase), mouse Tel-cKit/V559D-BaF3 (stably expressing C-KIT V559D mutant kinase), mouse Tel-cKit/V559D/V654A-BaF3 (stably expressing C-KIT V559D/V654A mutant kinase), mouse Tel-cKit/N822K-BaF3 (stably expressing C-KIT N822K mutant kinase), mouse Tel-cKit/V654A-BaF3 (stably expressing C-KIT V654A mutant kinase), mouse Tel-cKit/L567P-BaF3 (stably expressing C-KIT L567P mutant kinase), mouse Tel-cKit/T670I-BaF3 (stably expressing C-KIT T670I mutant kinase), mouse Tel-PDGFRα-BaF3 (stably expressing PDGFRα kinase), mouse Tel-PDGFRβ-BaF3 (stably expressing PDGFRβ kinase), mouse Tel-VEGFR2-BaF3 (stably expressing VEGFR2 kinase), mouse Tel-RET-BaF3 (stably expressing RET kinase). […]
as §2

[4] = Acute toxicity assay in mice, single oral gavage; assay type: in vivo; details: for Number of death (number of death/number of animals in each group): female mice, 7 days observation
Description: (§3) 1. 4-6 week-old Bal b/c female mice were purchased from Shanghai SLAC Experimental Animal Co., Ltd., and were raised in a SPF-level laboratory. Drinking water and padding were both subjected to aseptic processing via high-pressure disinfection, and all operations of the mice were conducted under aseptic conditions; 10 healthy mice were selected, and were balanced and randomly divided into 5 groups according to their weights.
2. Specific Information for Administration
Route of administration: oral gavage
Observation period: 7 days.
3. Observation Indicators
Weighing frequency: upon grouping, the day of administration (D0) to the seventh day after administration (D7). Based on the mouse weight on D0 (starting value of 100%), the graph of the relative body weight over time was plotted.
3.2. Clinical Symptoms Observation
Strict observation was carried out within 4 hours after administration, and then observation was carried out twice a day for a total of 7 days. Observation was carried out and abnormal symptoms or phenomena in each of animals were recorded.
The number of animals died in each of dosage groups during the observation period.
Comprehensive determination was performed based on animal mortality, clinical symptoms and body weights.

[5] = tested on: gastrointestinal stromal tumor cell lines GIST-T1; test: Mouse tumor model of GIST-T1 cells; assay type: in vivo; details: for tumor inhibition rate: Day 28 after administration
Description: as §3, with “conditions;” for “conditions; 10 healthy mice were selected, and were balanced and randomly divided into 5 groups according to their weights.”
2. About 5×10^6 gastrointestinal stromal tumor cell lines GIST-T1 or GIST-882 (purchased from ATCC) were respectively injected subcutaneously at left side back of all mice at Day 0;
5. Mice were sacrificed on Day 36 (for GIST-882 mouse model) or Day 43 (GIST-T1 mouse model) and subcutaneous tumors were taken out and weighed for comparison;
6. Tumor tissue specimens were prepared into protein lysate samples for further usage;
7. Growth trend of subcutaneous tumors from Day 16 to Day 43 was derived, and tumor volume was calculated as length×width×width/2 mm^3.

Cc1ccc(NC(=O)c2cccc(C(F)(F)F)c2)cc1OC1CCN(C(=O)c2ccncc2)CC1 [Compound 4]
GI50 [1]: 940 nM | GI50 [2]: 27 nM | GI50 (BaF3 cells): > 10000 nM | GI50 [3]: 6050 nM | Number of death (number of death/number of animals in each group) ([4]; 250 mg/kg single oral gavage): ♀: 0/2: | Number of death (number of death/number of animals in each group) ([4]; 500 mg/kg single oral gavage): ♀: 0/2: | effect on mouse weight ([4]; 1000 mg/kg single oral gavage): no significant effect on mouse weight | Number of death (number of death/number of animals in each group) ([4]; 1000 mg/kg single oral gavage): ♀: 0/2: | effect on mouse weight ([4]; 2000 mg/kg single oral gavage): decreased slightly | Number of death (number of death/number of animals in each group) ([4]; 2000 mg/kg single oral gavage): ♀: 0/2: | mouse organs on dissection ([4]; dissected after 7 days, single oral gavage): no obvious abnormalities | mice died ([4]; mouse, in vivo): no mouse died | maximum tolerated dosage ([4]; mouse, single oral gavage): 2000 mg/kg | inhibitory effect on mouse tumors ([5]; 25 mg/kg oral daily, Day 4 after administration): certain inhibitory effect | tumor inhibition rate ([5]; 50 mg/kg oral daily): 65.3% | tumor inhibition rate ([5]; 100 mg/kg oral daily): 73.8% | effect on body weight of mice ([5]; oral daily dosing): no effect on the body weight of mice
